Data: PubChem BioAssay (NCI)
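Five concentrations, 48 hours, 96-well plates. The concentration for 50% growth inhibition is given as GI50. The concentration for full growth arrest is given as TGI.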

Legend:
Assay in all cases: NCI-60 cell line screen, 48 h
NCI/ADR-RES ovarian = tested on: NCI/ADR-RES ovarian
HL-60(TB) leukemia = tested on: HL-60(TB) leukemia
SR leukemia = tested on: SR leukemia
MDA-MB-435 = tested on: MDA-MB-435
SW-620 colon = tested on: SW-620 colon
HCT-116 colon = tested on: HCT-116 colon
OVCAR-8 ovarian = tested on: OVCAR-8 ovarian
KM12 colon = tested on: KM12 colon
A498 renal = tested on: A498 renal
UACC-257 melanoma = tested on: UACC-257 melanoma

| Structure (SMILES) | TGI (NCI/ADR-RES ovarian) | TGI (HL-60(TB) leukemia) | TGI (SR leukemia) | TGI (MDA-MB-435) | TGI (SW-620 colon) | TGI (HCT-116 colon) | TGI (OVCAR-8 ovarian) | TGI (KM12 colon) | TGI (A498 renal) | TGI (UACC-257 melanoma) | GI50 (NCI/ADR-RES ovarian) | GI50 (HL-60(TB) leukemia) | GI50 (SR leukemia) | GI50 (MDA-MB-435) | GI50 (SW-620 colon) | GI50 (HCT-116 colon) | GI50 (OVCAR-8 ovarian) | GI50 (KM12 colon) | GI50 (A498 renal) | GI50 (UACC-257 melanoma) |
| --- | --- | --- | --- | --- | --- | --- | --- | --- | --- | --- | --- | --- | --- | --- | --- | --- | --- | --- | --- | --- |
| O=c1ccs[nH]1 | 50.5 µM | 25 µM | 16.4 µM | 31 µM | 50.1 µM | 38.3 µM | 32.9 µM | 62.1 µM | 99.6 µM | 33.2 µM |  |  |  |  |  |  |  |  |  |  |
| COC(=O)c1cc2c3ccccc3n3c(=O)c4cc5ccccc5nc4c(n1)c23 | > 100 µM | > 100 µM | > 100 µM | > 100 µM | > 100 µM | > 100 µM | > 100 µM | > 100 µM | > 100 µM | > 100 µM | > 100 µM | > 100 µM | > 100 µM | > 100 µM | > 100 µM | > 100 µM | > 100 µM | > 100 µM | > 100 µM | > 100 µM |
| CCOC(=O)NC1C2CC(=O)OC(O2)C1OC(C)=O (stereo not drawn) | > 100 µM | > 100 µM | > 100 µM | > 100 µM | > 100 µM | > 100 µM | > 100 µM | > 100 µM | > 100 µM | > 100 µM | > 100 µM | > 100 µM |  | > 100 µM |  |  |  |  |  |  |
| O=C1O/C(=C\c2ccccc2)N(c2ccccc2)C1=O | > 100 µM | > 100 µM | > 100 µM | > 100 µM | > 100 µM | > 100 µM | > 100 µM | > 100 µM | > 100 µM | > 100 µM |  |  |  |  |  |  |  |  |  |  |
| CNC(=O)c1ccc(N2C(=S)N(c3ccc(C#N)c(C(F)(F)F)c3)C(=O)C2(C)C)cc1F | > 100 µM | > 100 µM | > 100 µM | > 79.3 µM | > 100 µM | > 58.2 µM | > 100 µM | > 91.1 µM | > 71 µM | > 80.7 µM | 33.3 µM | 33.7 µM | 17.9 µM | 41.9 µM | > 52.6 µM | 23.9 µM | 50.2 µM | 48.1 µM | > 35.3 µM | 35.1 µM |
| Cc1occc1C(=S)Nc1ccc(Cl)c(C(=O)OC(C(C)C)C(C)C)c1 | 26.3 µM | 29.8 µM | 28 µM | 65.8 µM | 46.2 µM | 24.5 µM | 26.5 µM | 29.9 µM | 27.8 µM | 19.2 µM |  |  |  |  |  |  |  |  |  |  |
| CCCN(CCC)c1ccc(/C=C/c2ccc3cc(OCC)ccc3n2)cc1 | > 100 µM | > 100 µM | > 100 µM | > 100 µM | > 100 µM | > 100 µM | > 100 µM | > 100 µM | > 100 µM | > 100 µM | > 100 µM | 20.3 µM | 13.8 µM | > 100 µM | > 100 µM | 31.6 µM | 99.2 µM | > 100 µM | > 100 µM | > 100 µM |
